In patent publication US8772504B2, “Substituted benzoxazole, benzimidazole, oxazolopyridine and imidazopyridine derivatives as gamma secretase modulators” (Janssen Pharmaceuticals, Inc., priority 2009, dated 2014):

What was measured:
[1] = tested on: T1, Notch-processing activity of the γ-secretase-complex; assay: Notch cell-based assay (N2-CHO/DL-CHO co-culture, Dual-Glo luciferase); set-up: species or system mouse; conditions: N2-CHO/DL-CHO co-culture 16 h; five-point curve 3 μM-0.3 nM
T1 construct: average IC50 Notch cell-based assay (luciferase readout); other: N2-CHO/DL-CHO co-culture 16 h; five-point curve 3 μM-
Description: The Notch cell-based assay was based on the interaction of Notch and its ligand in a co-culture system and utilized the Dual-Glo Luciferase Assay System (Promega) to monitor NICD production. 2 stable cell lines, N2-CHO and DL-CHO, were established to express full-length mouse Notch2 and Delta respectively. Cells that expressed mouse Notch were also transfected with 2 plasmids, pTP1-Luc and pCMV-RLuc, to express firefly and Renilla luciferase. Expression of firefly luciferase was under the control of TP1 promoter that responded to NICD activation.
N2-CHO cells were seeded at 1×10^5/well in 24-well plates the day before transfection. On the second day, cells were double transfected with 3 μg/well pTP1-Luc (expressing firefly luciferase) and 0.3 ng/well pCMV-RLuc (expressing Renilla luciferase). After 6 h incubation, transfected N2-CHO cells were washed and DL-CHO cells (2×10^5 cells/well) were added.
Compounds were pre-mixed with DL-CHO cell suspension in a five-point curve. Typically, compound treatment was performed in duplicate with a serial 1:10 dilution (3 μM-0.3 nM) in DMSO. The final concentration of DMSO in a given culture was 1%. Controls included non-transfected cells and transfected cells treated with a GSI or DMSO only. Luciferase assays were performed after 16 h co-culture and compound treatment.
The luciferase assay was carried out according to manufacture's instructions. Briefly, cells were washed with PBS (Phosphate Buffered Saline), lysed with Passive Lysis Buffer (Promega), and incubated at room temperature for 20 min. Lysates were mixed with Dual-Glo Luciferase Reagent and the firefly luciferase activity was measured by reading the luminescence signal in the EnVision 2101 Multilabel reader. Dual-Glo Stop & Glo Reagent was then added to each well and the Renilla luciferase signal was measured.

[2] = tested on: Aβ42; assay: In vivo efficacy Method 2: brain soluble Aβ42 by ELISA; set-up: species or system mouse; conditions: Table 4b, single oral dose, overnight fasted non-transgenic animals, sacrificed after 4 h, soluble fraction of brain homogenates
Description: (§1) To determine whether acute administration of an Aβ42 lowering agent would reduce Aβ42 levels in vivo, non-transgenic rodents, e.g. mice or rats were used. Animals treated with the Aβ42 lowering agent were examined and compared to those untreated or treated with vehicle and brain levels of soluble Aβ42 and total Aβ were quantitated by standard techniques, for example, using ELISA. Treatment periods varied from hours (h) to days and were adjusted based on the results of the Aβ42 lowering once a time course of onset of effect could be established.
(§2) A typical protocol for measuring Aβ42 lowering in vivo is shown but it is only one of many variations that could be used to optimize the levels of detectable Aβ. For example, Aβ42 lowering compounds were formulated in 20% of Captisol® (a sulfobutyl ether of β-cyclodextrin) in water or 20% hydroxypropyl β cyclodextrin. The Aβ42 lowering agents were administered as a single oral dose or by any acceptable route of administration to overnight fasted animals. After 4 h, the animals were sacrificed and Aβ42 levels were analysed.
(§3) Blood was collected by decapitation and exsanguinations in EDTA-treated collection tubes. Blood was centrifuged at 1900 g for 10 minutes (min) at 4° C. and the plasma recovered and flash frozen for later analysis. The brain was removed from the cranium and hindbrain. The cerebellum was removed and the left and right hemisphere were separated. The left hemisphere was stored at −18° C. for quantitative analysis of test compound levels. The right hemisphere was rinsed with phosphate-buffered saline (PBS) buffer and immediately frozen on dry ice and stored at −80° C. until homogenization for biochemical assays.
(§4) Mouse brains from non-transgenic animals were resuspended in 8 volumes of 0.4% DEA (diethylamine)/50 mM NaCl containing protease inhibitors (Roche-11873580001 or 04693159001) per gram of tissue, e.g. for 0.158 g brain, add 1.264 ml of 0.4% DEA. All samples were homogenized in the FastPrep-24 system (MP Biomedicals) using lysing matrix D (MPBio #6913-100) at 6 m/s for 20 seconds. Homogenates were centrifuged at 221.300×g for 50 min. The resulting high speed supernatants were then transferred to fresh eppendorf tubes. Nine parts of supernatant were neutralized with 1 part 0.5 M Tris-HCl pH 6.8 and used to quantify Aβtotal and Aβ42.
(§5) To quantify the amount of Aβtotal and Aβ42 in the soluble fraction of the brain homogenates, Enzyme-Linked-Immunosorbent-Assays were used . Briefly, the standards (a dilution of synthetic Aβ1-40 and Aβ1-42, Bachem) were prepared in 1.5 ml Eppendorf tube in Ultraculture, with final concentrations ranging from 10000 to 0.3 pg/ml. The samples and standards were co-incubated with HRPO-labelled N-terminal antibody for Aβ42 detection and with the biotinylated mid-domain antibody 4G8 for Aβtotal detection. 50 μl of conjugate/sample or conjugate/standards mixtures were then added to the antibody-coated plate (the capture antibodies selectively recognize the C-terminal end of Aβ42, antibody JRF/cAβ42/26, for Aβ42 detection and the N-terminus of Aβ, antibody JRF/rAβ/2, for Aβtotal detection). The plate was allowed to incubate overnight at 4° C. in order to allow formation of the antibody-amyloid complex. Following this incubation and subsequent wash steps the ELISA for Aβ42 quantification was finished by addition of Quanta Blu fluorogenic peroxidase substrate according to the manufacturer's instructions (Pierce Corp., Rockford, Ill.). A reading was performed after 10 to 15 min (excitation 320/emission 420).
In this model at least 20% Aβ42 lowering compared to untreated animals would be advantageous.

[3] = tested on: Aβtotal; assay: In vivo efficacy Method 2: brain soluble Aβtotal by ELISA; set-up: species or system mouse; conditions: Table 4b, single oral dose, overnight fasted non-transgenic animals, sacrificed after 4 h, soluble fraction of brain homogenates
Description: as §1, §2, §3, §4, §5
For Aβtotal detection, a Streptavidine-Peroxidase-Conjugate was added, followed 60 min later by an additional wash step and addition of Quanta Blu fluorogenic peroxidase substrate according to the manufacturer's instructions (Pierce Corp., Rockford, Ill.). A reading was performed after 10 to 15 min (excitation 320 nm/emission 420 nm).

melting point | Compound | inhibition in Notch cell-based assay (luciferase readout) [1] | Aβ42 (% Ctrl) _Mean [2] | Aβtotal (% Ctrl) _Mean [3]
185.2 °C | COc1cc(Nc2cccc3c2nc(-c2ccc(F)cc2)n3C)ccc1-n1cnc(C)n1 [Compound 4] |  |  | 
 | COc1nc(Nc2cccc3c2nc(-c2ccc(F)cc2)n3C)ccc1-n1cnc(C)c1 [Compound 15] | non-inhibitory | 39 % Ctrl | 82 % Ctrl
 | COc1cc(Nc2nccc3c2nc(-c2ccc(F)cc2)n3C)ccc1-n1cnc(C)n1 [Compound 92] | non-inhibitory |  | 
 | COc1cc(Nc2cc(C(C)C)nc3c2nc(-c2ccc(F)cc2)n3C)ccc1-n1cnc(C)n1 [Compound 110] |  | 78 % Ctrl | 106 % Ctrl
186.8 °C | COc1cc(-c2nc3c(Nc4ccc(-n5cnc(C)n5)c(OC)c4)nccc3n2C)ccc1Cl [Compound 114] | non-inhibitory |  | 
 | COc1cc(Nc2nccc3c2nc(-c2ccccc2C(F)(F)F)n3C)ccc1-n1cnc(C)n1 [Compound 130] | non-inhibitory |  | 

Compound | melting point | inhibition in Notch cell-based assay (luciferase readout) [1] | Aβ42 (% Ctrl) _Mean [2] | Aβtotal (% Ctrl) _Mean [3]
COc1cc(Nc2cccc3c2nc(-c2ccc(F)cc2)n3C)ccc1-n1cnc(C)c1 [Compound 1] | 130.9 °C |  |  | 
